Results published in US20170037091A1, “STY PEPTIDES FOR INHIBITION OF ANGIOGENESIS” (RESEARCH DEVELOPMENT FOUNDATION, priority 2014, published 2017).

Tests used:
[1] = tested on: CRL 1500 breast cancer cell line; assay: XTT cell proliferation assay, CRL 1500 breast cancer cells; assay type: cell-based, human
Protocol: (§1) A 26 amino acid sequence corresponding to a Ser-Thr-Tyr domain within RTEF-1 (FIG. 1), linked to a 10 amino acid cell importation signal (RMR) was synthesized (GenScript NJ). Human ocular melanoma cells (Mel 270, Mel 202), retinoblastoma cells (Y79; ATTC, MD), primate ocular endothelial retina/choroid ocular endothelial cells (RF/6A; ATCC, MD), human retinal pigment epithelial cells (ARPE19; ATCC, MD), and the CRL 1500 breast cancer cell line (ATCC, MD) were plated into 96 well plates and cultured for 24 h. […]
(§2) Cell proliferation was assessed at 72 h using a colorimetric XTT assay (Roche Diagnostics, Indianpolis, Conn., USA). Cell proliferation was expressed as a percentage and compared with untreated control cell growth (N=3).

[2] = tested on: primate ocular endothelial retina/choroid ocular endothelial cells (RF/6A); assay: XTT cell proliferation assay, RF/6A ocular endothelial cells; assay type: cell-based; settings: 30 mg/100 mL, XTT at 72 h
Protocol: (§3) A 26 amino acid sequence corresponding to a Ser-Thr-Tyr domain within RTEF-1 (FIG. 1), linked to a 10 amino acid cell importation signal (RMR) was synthesized (GenScript NJ). Human ocular melanoma cells (Mel 270, Mel 202), retinoblastoma cells (Y79; ATTC, MD), primate ocular endothelial retina/choroid ocular endothelial cells (RF/6A; ATCC, MD), human retinal pigment epithelial cells (ARPE19; ATCC, MD), and the CRL 1500 breast cancer cell line (ATCC, MD) were plated into 96 well plates and cultured for 24 h. Recombinant STY-RMR peptide was added to the cell culture media at various concentrations (10 to 30 mg/100 mL).
as §2

[3] = tested on: human retinal pigment epithelial cells (ARPE19); assay: XTT cell proliferation assay, ARPE-19 cells; assay type: cell-based; settings: 30 mg/100 mL, XTT at 72 h
Protocol: as §3, §2

[4] = tested on: Human ocular melanoma cells (Mel 202); assay: XTT cell proliferation assay, Mel 202 ocular melanoma cells; assay type: cell-based; settings: 30 mg/100 mL, XTT at 72 h, N=3
Protocol: as §3, §2

[5] = tested on: Human ocular melanoma cells (Mel 270); assay: XTT cell proliferation assay, Mel 270 ocular melanoma cells; assay type: cell-based; settings: 30 mg/100 mL, XTT at 72 h
Protocol: as §3, §2

[6] = tested on: secreted VEGF, breast cancer cells (CRL 1500); assay: VEGF ELISA of culture media, CRL 1500 breast cancer cells; assay type: cell-based, human; settings: 0.1 μg/100 μL, three days
Protocol: as §1
(§4) The amount of VEGF within the media was determined by VEGF ELISA (R&D Systems, MN, USA) and compared between STY-RMR treated and controls (N=3).

[7] = tested on: secreted VEGF, ocular melanoma cell line 270; assay: VEGF ELISA of culture media, Mel 270 cells; assay type: cell-based, human; settings: 30 mg/100 mL, three days
Protocol: as §3, §4

[8] = tested on: secreted VEGF, ocular retinal-choroidal derived vascular endothelial cells (RF/6A); assay: VEGF ELISA of culture media, RF/6A cells; assay type: cell-based, primate; settings: 30 mg/100 mL, three days
Protocol: as §3, §4

[9] = tested on: secreted VEGF, ARPE19 cells; assay: VEGF ELISA of culture media, ARPE19 cells; assay type: cell-based, human; settings: 30 mg/100 mL, three days
Protocol: as §3, §4

[10] = tested on: secreted VEGF in the media of all tested cell lines; assay: VEGF ELISA of culture media, all tested cell lines (summary statement); assay type: cell-based; settings: all tested cell lines exposed to STY-RMR
Protocol: as §3, §4

## STY-RMR: 26 amino acid STY domain of RTEF-1 linked to 10 amino acid RMR cell importation signal; 36 amino acids (SEQ ID NO:2) (SSFYGVSSQYESPENMIITCSTKVCSRMRRMRRMRR)
[1]; 0.1 μg/100 μL twice a day for three days
  inhibition of breast cancer cell (CRL 1500) proliferation: 9%
[1]; 0.2 μg/100 μL twice a day for three days
  inhibition of breast cancer cell (CRL 1500) proliferation: 27%
[1]; 0.5 μg/100 μL twice a day for three days
  inhibition of breast cancer cell (CRL 1500) proliferation: 27%
[1]; 1 μg/100 μL twice a day for three days
  inhibition of breast cancer cell (CRL 1500) proliferation: 27%
[1]; 5 μg/100 μL twice a day for three days
  inhibition of breast cancer cell (CRL 1500) proliferation: 50%
[1]; 6 μg/100 μL twice a day for three days
  inhibition of breast cancer cell (CRL 1500) proliferation: 50%
[2]
  inhibition of RF/6A ocular endothelial cell proliferation: 42%
[3]
  inhibition of ARPE-19 retinal pigment epithelial cell proliferation: 75%
[4]
  inhibition of Mel 202 ocular melanoma cell proliferation: 87%
[5]
  inhibition of Mel270 ocular melanoma cell proliferation below control: 60%
[6]
  decrease of VEGF levels in breast tumor cells (ELISA): 78%
[7]
  reduction in secreted VEGF levels, ocular melanoma cell line 270 (ELISA): 81%
[8]
  reduction of secreted VEGF, RF/6A ocular vascular endothelial cells (ELISA): 80%
[9]
  reduction of VEGF levels compared to control, ARPE19 cells (ELISA): 88%
[10]
  secreted VEGF in the media, result in words: decreased
